Experimental data published in patent publication US11572362B2, “Pyrrolo[1,2-b]pyridazine derivatives” (Gilead Sciences, Inc., priority 2018, dated 2023).

Key:
TNFα = assay: IRAK4 Monocyte TNFα Cell Based Assay; conditions: Monocyte; cryopreserved human monocytes, 50 pg/ml LPS, compound 1 hour pre-treatment, 4 hours stimulation, TNFα by TR-FRET
Procedure: IRAK4 Monocyte TNFα Cell Based Assay Procedure:
The cell suspension was then plated at a density of 5,000 cells/well onto black 384 well Greiner clear bottom plates. Plates were pre-spotted with test compounds and serially diluted in DMSO where 40 nL/well were delivered using the Echo 550 acoustic liquid dispenser (Labcyte®) for a final DMSO concentration of 0.1%. Plated cells were treated with compound for 1 hour at 37° C. Cells were then stimulated with 50 pg/ml of LPS (Sigma) excluding outside columns of plate used for unstimulated cell control wells. Cells were incubated for an additional 4 hours at 37° C. Cells were then spun out of the media and 5 μl of sample were taken and analyzed for total TNFα content using the TR-FRET Human TNFα detection system (CisBio). This system utilizes two labeled antibodies (cryptate and XL665) that bind to two different epitopes of the TNFα molecule and produce FRET signal proportional to the concentration of TNFα in the sample. Detection antibodies are mixed 50:50 and 5 μL were dispensed into each well. Plates were covered with clear seals and incubated at room temp overnight. The following morning plates were read using an Envision 2103 Multilabeled reader (PerkinElmer) with excitation/emission/FRET emission at 340 nm/615 nm/665 nm, respectively. Fluorescence intensities at 615 nm and 665 nm emission wavelengths were expressed as a ratio (665 nm/615 nm). Percent of control was calculated as follows: % Control=100×(RatioSample−Ratio0% Stimulation)/(Ratio100% Stimulation−Ratio0% Stimulation)
where unstimulated cells (0% stimulation) were the negative control and stimulated cells (100% stimulation) were used as the positive control.

IRAK4 = IRAK4 (Homo sapiens (Human), UniProt Q9NWZ3); assay: IRAK4 Biochemical Assay (TR-FRET/HTRF); conditions: IRAK4 enzyme 0.75 nM, 500 μM ATP, 2 μM STK1 peptide, 120 min
Procedure: IRAK4 Biochemical Assay Procedure:
IRAK4 enzyme (Carna Biosciences, Chuo-ku, Kobe, Japan) activity was measured by detecting phosphorylated peptide substrate formation using an antibody against the phosphorylated peptide substrate. This is a time-resolved fluorescence resonance energy transfer (TR-FRET) immunoassay, based on the STK1 KinEASE Assay (Cisbio, Bedford, Mass.). The assay was designed as a simple two-step, endpoint assay (a 5 μl enzyme reaction followed by 5 μl stop and detect Solution) performed in ProxiPlate-384 Plus plates (Perkin Elmer, Waltham, Mass.). Staurosporine, a non-selective kinase inhibitor was used as a positive control. Compounds diluted in DMSO were spotted into 384 well plates using a Labcyte® Echo 550 Liquid Handling System prior to addition of IRAK4 enzyme and peptide substrate. Reaction solutions were delivered using a Multi-Flo (Bio-Tek Instruments). The enzyme and peptide solution was incubated with compound for 15 minutes at room temp before the reaction was initiated by the addition of ATP. The standard 5 μl reaction mixture contained 500 μM ATP, 2 μM peptide (STK1 Peptide), 0.75 nM of IRAK4 in reaction buffer (50 mM HEPES, pH 7.0, 0.02% NaN3, 0.01% BSA, 0.1 mM Orthovanadate, 5 mM MgCl2, 0.025% NP-40, 1 mM DTT). After 120 min of incubation at room temperature, 5 μl of Stop and Detect Solution (1:100 Cryptate labeled anti-phosphorylated peptide antibody solution and 125 nM Tracer in a 50 mM HEPES pH 7.0 detection buffer containing sufficient EDTA) was added. The plate was then further incubated for 60 minutes at room temperature and read on Envision 2103 Multilabeled reader (PerkinElmer) with excitation/emission/FRET emission at 340 nm/615 nm/665 nm, respectively. Fluorescence intensities at 615 nm and 665 nm emission wavelengths were expressed as a ratio (665 nm/615 nm). Percentage of inhibition was calculated as below: % Inhibition=100×(RatioSample−Ratio0% Inhibition)/(Ratio100% Inhibition−Ratio0% Inhibition)
The 0% inhibition value comes from control wells lacking inhibitor. The 100% inhibition value comes from control wells containing a saturating amount of known inhibitor staurosporine.

Sequence of IRAK4 (Q9NWZ3 whole entry): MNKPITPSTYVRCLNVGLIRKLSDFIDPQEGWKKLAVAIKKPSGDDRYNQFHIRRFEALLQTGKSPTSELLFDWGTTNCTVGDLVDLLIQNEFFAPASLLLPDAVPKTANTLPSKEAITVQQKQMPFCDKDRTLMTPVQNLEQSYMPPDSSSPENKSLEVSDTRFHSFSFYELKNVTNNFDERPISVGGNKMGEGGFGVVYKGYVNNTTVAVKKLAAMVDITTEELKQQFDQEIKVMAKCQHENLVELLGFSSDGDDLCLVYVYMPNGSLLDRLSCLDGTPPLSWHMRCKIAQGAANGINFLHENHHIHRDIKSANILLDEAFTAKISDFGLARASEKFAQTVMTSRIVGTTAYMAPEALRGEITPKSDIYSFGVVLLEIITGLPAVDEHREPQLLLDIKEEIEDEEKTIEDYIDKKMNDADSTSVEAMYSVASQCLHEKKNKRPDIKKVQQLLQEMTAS

Structure (SMILES)	EC50 (TNFα) [µM]	IC50 (IRAK4) [µM]
CC(C)(O)[C@H](F)CNC(=O)c1cnc(-c2ccc3cc(C#N)cnn23)cc1NC1CCC(F)(c2nnc(C(F)F)o2)CC1 (stereo partly drawn) [Compound 43, (R)-6-(3-cyanopyrrolo[1,2-b]pyridazin-7-yl)-4-((4-(5-(difluoromethyl)-1,3,4-oxadiazol-2-yl)-4-fluorocyclohexyl)amino)-N-(2-fluoro-3-hydroxy-3-methylbutyl)nicotinamide]	0.039	< 0.001
CC(C)(O)[C@H](F)CNC(=O)c1cnc(-c2ccc3cc(C#N)cnn23)cc1N[C@H]1CC[C@H](n2cc(CC#N)cn2)CC1 [Compound 27, 4-(((1r,4R)-4-(4-(cyanomethyl)-1H-pyrazol-1-yl)cyclohexyl)amino)-6-(3-cyanopyrrolo[1,2-b]pyridazin-7-yl)-N-((R)-2-fluoro-3-hydroxy-3-methylbutyl)nicotinamide]	0.058	< 0.001
CC(C)(O)[C@H](F)CNC(=O)c1cnc(-c2ccc3cc(C#N)cnn23)cc1N[C@H]1CC[C@H](n2ccc(C(F)F)n2)CC1 [Compound 23, 6-(3-cyanopyrrolo[1,2-b]pyridazin-7-yl)-4-(((1r,4R)-4-(3-(difluoromethyl)-1H-pyrazol-1-yl)cyclohexyl)amino)-N-((R)-2-fluoro-3-hydroxy-3-methylbutyl)nicotinamide]	0.038	0.001
CC(C)(O)[C@H](F)CNC(=O)c1cnc(-c2ccc3cc(C#N)cnn23)cc1N[C@H]1CC[C@H](c2nnc(C3CC3)o2)CC1 [Compound 41, 6-(3-cyanopyrrolo[1,2-b]pyridazin-7-yl)-4-(((1r,4R)-4-(5-cyclopropyl-1,3,4-oxadiazol-2-yl)cyclohexyl)amino)-N-((R)-2-fluoro-3-hydroxy-3-methylbutyl)nicotinamide]	0.038	< 0.001
CC(C)(O)[C@H](F)CNC(=O)c1cnc(-c2ccc3cc(C#N)cnn23)cc1N[C@H]1CC[C@H](c2ccccn2)CC1 [Compound 54, 6-(3-cyanopyrrolo[1,2-b]pyridazin-7-yl)-N-((R)-2-fluoro-3-hydroxy-3-methylbutyl)-4-(((1r,4R)-4-(pyridin-2-yl)cyclohexyl)amino)nicotinamide]	0.018	< 0.001
CC(C)(O)[C@H](F)CNC(=O)c1cnc(-c2ccc3cc(C#N)cnn23)cc1NC1CCC(c2ccncc2)CC1 (single isomer, unassigned) [Compound 56]	0.221	0.009
Cc1noc([C@H]2CC[C@H](Nc3cc(-c4ccc5cc(C#N)cnn45)ncc3C(=O)NC[C@@H](F)C(C)(C)O)CC2)n1 [Compound 45, 6-(3-cyanopyrrolo[1,2-b]pyridazin-7-yl)-N-((R)-2-fluoro-3-hydroxy-3-methylbutyl)-4-(((1r,4R)-4-(3-methyl-1,2,4-oxadiazol-5-yl)cyclohexyl)amino)nicotinamide]	0.085	0.002
CC(C)(O)[C@H](F)CNC(=O)c1cnc(-c2ccc3cc(C#N)cnn23)cc1NC12CCC(N3CCOCC3=O)(CC1)CC2 [Compound 69, (R)-6-(3-cyanopyrrolo[1,2-b]pyridazin-7-yl)-N-(2-fluoro-3-hydroxy-3-methylbutyl)-4-((4-(3-oxomorpholino)bicyclo[2.2.2]octan-1-yl)amino)nicotinamide]	0.015	< 0.001
CC(C)(O)[C@H](F)CNC(=O)c1cnc(-c2ccc3cc(C#N)cnn23)cc1N[C@H]1CC[C@H](c2cnn(C3CC3)c2)CC1 [Compound 14, 6-(3-cyanopyrrolo[1,2-b]pyridazin-7-yl)-4-(((1r,4R)-4-(1-cyclopropyl-1H-pyrazol-4-yl)cyclohexyl)amino)-N-((R)-2-fluoro-3-hydroxy-3-methylbutyl)nicotinamide]	0.053	0.001
CC(C)(O)[C@H](F)CNC(=O)c1cnc(-c2ccc3cc(C#N)cnn23)cc1N[C@H]1CC[C@H](c2cc(C(F)F)no2)CC1 [Compound 47, 6-(3-cyanopyrrolo[1,2-b]pyridazin-7-yl)-4-(((1r,4R)-4-(3-(difluoromethyl)isoxazol-5-yl)cyclohexyl)amino)-N-((R)-2-fluoro-3-hydroxy-3-methylbutyl)nicotinamide]	0.089	0.002
CC(C)(O)[C@H](F)CNC(=O)c1cnc(-c2ccc3cc(C#N)cnn23)cc1NC12CCC(c3cnco3)(CC1)CC2 [Compound 66, (R)-6-(3-cyanopyrrolo[1,2-b]pyridazin-7-yl)-N-(2-fluoro-3-hydroxy-3-methylbutyl)-4-((4-(oxazol-5-yl)bicyclo[2.2.2]octan-1-yl)amino)nicotinamide]	0.008	< 0.001
Cc1nnc(C23CCC(Nc4cc(-c5ccc6cc(C#N)cnn56)ncc4C(=O)NC[C@@H](F)C(C)(C)O)(CC2)CC3)o1 [Compound 60, (R)-6-(3-cyanopyrrolo[1,2-b]pyridazin-7-yl)-N-(2-fluoro-3-hydroxy-3-methylbutyl)-4-((4-(5-methyl-1,3,4-oxadiazol-2-yl)bicyclo[2.2.2]octan-1-yl)amino)nicotinamide]	0.015	< 0.001
Cn1cc([C@H]2CC[C@H](Nc3cc(-c4ccc5cc(C#N)cnn45)ncc3C(=O)NC[C@@H](F)C(C)(C)O)CC2)nn1 [Compound 19, 6-(3-cyanopyrrolo[1,2-b]pyridazin-7-yl)-N-((R)-2-fluoro-3-hydroxy-3-methylbutyl)-4-(((1r,4R)-4-(1-methyl-1H-1,2,3-triazol-4-yl)cyclohexyl)amino)nicotinamide]	0.026	< 0.001
CC(C)(O)[C@H](F)CNC(=O)c1cnc(-c2ccc3cc(C#N)cnn23)cc1N[C@H]1CC[C@H](c2cnn(CC(F)F)c2)CC1 [Compound 5, 6-(3-cyanopyrrolo[1,2-b]pyridazin-7-yl)-4-(((1r,4R)-4-(1-(2,2-difluoroethyl)-1H-pyrazol-4-yl)cyclohexyl)amino)-N-((R)-2-fluoro-3-hydroxy-3-methylbutyl)nicotinamide]	0.022	< 0.001
CC(C)(O)[C@H](F)CNC(=O)c1cnc(-c2ccc3cc(C#N)cnn23)cc1N[C@H]1CC[C@H](c2cc[nH]n2)CC1 [Compound 70, 4-(((1r,4R)-4-(1H-pyrazol-3-yl)cyclohexyl)amino)-6-(3-cyanopyrrolo[1,2-b]pyridazin-7-yl)-N-((R)-2-fluoro-3-hydroxy-3-methylbutyl)nicotinamide]		0.000822
CC(C)(O)[C@H](F)CNC(=O)c1cnc(-c2ccc3cc(C#N)cnn23)cc1N[C@H]1CC[C@@H](c2cc[nH]n2)CC1 [Compound 71, 4-(((1s,4S)-4-(1H-pyrazol-3-yl)cyclohexyl)amino)-6-(3-cyanopyrrolo[1,2-b]pyridazin-7-yl)-N-((R)-2-fluoro-3-hydroxy-3-methylbutyl)nicotinamide]		0.00313
CC(C)(O)[C@H](F)CNC(=O)c1cnc(-c2ccc3cc(C#N)cnn23)cc1N[C@H]1CC[C@H](c2cnn(C(F)F)n2)CC1 [Compound 75, 6-(3-cyanopyrrolo[1,2-b]pyridazin-7-yl)-4-(((1r,4R)-4-(2-(difluoromethyl)-2H-1,2,3-triazol-4-yl)cyclohexyl)amino)-N-((R)-2-fluoro-3-hydroxy-3-methylbutyl)nicotinamide]		0.000875
CC(C)(O)[C@H](F)CNC(=O)c1cnc(-c2ccc3cc(C#N)cnn23)cc1NC1CCC(c2cnn(CC(F)(F)F)c2)CC1 (stereo partly drawn) [Compound 6, (R)-6-(3-cyanopyrrolo[1,2-b]pyridazin-7-yl)-N-(2-fluoro-3-hydroxy-3-methylbutyl)-4-((4-(1-(2,2,2-trifluoroethyl)-1H-pyrazol-4-yl)cyclohexyl)amino)nicotinamide]	0.07	
